Several values for one entry are separate records, joined by “and”; a condition that tells them apart may be missing. Identical values can stand only once. Entries after “also recorded” stand apart in the source; their conditions may differ.

The subject of experiment [1] is Collagen I. Nature of the experiment: Assay C: Collagen I mRNA by TaqMan RT-PCR. It is filed as in vivo, Male Sprague-Dawley rats. Particulars: for Collagen type-I message: at 30 days, compared to vehicle + salt controls; for Collagen-I (AU): collagen type I mRNA relative to cyclophilin, eplerenone dose 100 mg/kg/day. On the procedure: (§1) The procedure of Assay B was expanded upon in a further study. […] Myocardial tissue from animals in each treatment group was examined after 7, 14, or 30 days of treatment.
(§2) Potassium chloride supplementation was added to the saline solution in order to prevent the potential hypokalemia associated with aldosterone excess.
(§3) At the time of the surgery, an Alzet 2002 osmotic minipump (Alza Corp., Palo Alto, Calif.) containing either vehicle (9% ethanol/87% propylene glycol/4% dH2O) or 1.0 mg/mL d-aldosterone (Sigma Chemical, St. Louis, Mo.) was inserted subcutaneously at the nape of the neck. Aldosterone was administered at a dose of 0.75 µg/hour. […] Animals were sacrificed from each group (n=8-13) after 7, 14, or 30 days of treatment.
(§4) The fluorogenic 5′-nuclease assay (TaqMan PCR) using Applied Biosystems' 7700 Sequence Detection System (Applied Biosystems, Foster City, Calif.) allowed for real time detection/quantitation of a specific gene by monitoring the increase in fluorescence of a gene-specific, dye-labeled oligonucleotide probe. Probes for target and reference genes were labeled at the 5′-end with a 6-carboxyfluorescein (6FAM) reporter dye and at the 3′-end with a 6-carboxy-N,N,N′,N′-tetramethylrhodamine (TAMRA) quencher dye. When the probe was annealed to the target gene, fluorescence of 6FAM was prevented by the close proximity of TAMRA. The exonuclease activity of Taq polymerase released the dyes from the oligonucleotide probe by displacing the probe from the target sequence resulting in fluorescence excitation in direct proportion to the amount of target message present. Data analysis was performed using the Sequence Detection System software from Applied Biosystems.
Primers and probes were designed using Oligo Primer Analysis Software, Version 5.0 (National Biosciences Inc. (NBI)-Wojciech Rychlik, Cascade, Colo.). Primers were synthesized by Life Technologies (Grand Island, N.Y.) and probes were synthesized by Applied Biosystems. Primer/probe sets were designed from known sequences of rat genes to be analyzed. All target gene values were normalized to a reference gene, constitutively expressed cyclophilin. Primer/probe sets sequences can be found in Table 8
RNA was extracted from frozen (−70° C.) left ventricle (LV) tissue (approximately 10-20 mg) using 1.5 mL RNA-STAT 60 according to manufacturer's instructions (Leedo Medical Laboratories, Inc., Houston, Tex.). Briefly, tissues were homogenized using a tissue homogenizer equipped with a 5 mm probe (Ultra-Turrax T8 Homogenizer, IKA Works, Inc. Wilmington, N.C.). Following homogenization, an equal volume of molecular grade chloroform (Sigma Chemical Co., St. Louis, Mo.) was incubated with periodic mixing for 10 min at room temperature. Samples were centrifuged at 12,000 g for 10 min and RNA was precipitated from the top layer by adding an equal volume of molecular grade isopropanol (Sigma Chemical Co.) followed by an overnight incubation at −80° C. RNA was pelleted by centrifugation at 12,000 g, washed with 75% ethanol, and solubilized in nuclease-free water (Promega, Madison, Wis.).
Double-stranded cDNA was synthesized by adding 400 ng RNA (4 uL) to a final volume of 20 uL containing 15% nuclease-free water (Promega, Madison, Wis.), 1×RT Buffer (Life Technologies, Grand Island, N.Y.), 10 mM DTT (Life Technologies), 0.5 mM each of dATP, dTTP, dGTP, dCTP (PE Biosystems, Foster City, Calif.), 2.5 μM Oligo d(T)15 (Oligo Therapeutics, Inc., Wilsonville, Oreg.), 40 units RNAsin (Promega), and 200 units SuperScript II Reverse Transcriptase (Life Technologies). The reactions were performed in thin-walled reaction tubes with caps (Applied Biosystems) to ensure accurate reaction temperatures.

The subject of experiment [2] is osteopontin. Nature of the experiment: Assay A: immunostaining of hearts with osteopontin-specific antibody. Particulars: angiotensin II-infused, saline-drinking rats; eplerenone 100 mpk; aldosterone replacement in adrenalectomized rats. It is filed as in vivo, Male Wistar rats. The text has this: Osteopontin (also known as early T-cell activation-1, Eta-1) is a secreted glycoprotein with pro-inflammatory characteristics that mediates chemoattraction, activation and migration of monocytes.

Experiment [3] deals with vascular cell adhesion molecule-1 (VCAM-1). Nature of the experiment: Assay C: VCAM-1 mRNA in heart by TaqMan RT-PCR. The note with it: for VCAM mRNA (AU): relative to cyclophilin expression, mean ± SEM, eplerenone dose 100 mg/kg/day; for VCAM (AU): mRNA; for VCAM-1 mRNA expression: myocardium, aldosterone + salt, 7, 14, 30 days, eplerenone 100 mg/kg/day. The experiment is classed as in vivo, Male Sprague-Dawley rats. As to the method:
as §1, §2, §3, §4
All primers and probes were designed using Primer Express software supplied with the 7700 Sequence Detection System and synthesized by Applied Biosystems. Standard curves using 5-fold dilutions of total RNA (from 200 ng to 320 pg) were performed to determine the efficiency of each primer/probe set in the TaqMan reaction prior to the analysis of the experimental samples. Primer/probe sets were designed from known sequences of rat genes to be analyzed. All target gene values were normalized to a reference gene, constitutively expressed cyclophilin. Primer/probe set sequences can be found in Table 8.
RNA was extracted from frozen (−80° C.) rat heart tissue using the Totally RNA Isolation Kit (Ambion, Inc., Austin, Tex.). Tissue was crushed using a stainless steel mortar and pestle, which had been chilled to −80° C. and transferred to a dounce homogenizer (Kontes, Vineland, N.J.) containing 3-10 mL cold denaturation buffer. Tissue was homogenized and transferred to a sterile, 15 mL polypropylene centrifuge tube. An equal volume of phenol:chloroform:isoamyl alcohol (25:24:1) was added, samples were shaken vigorously for 1 min, and incubated on ice for at least 15 min. Samples were centrifuged for 30 min at 10,000g. The aqueous phase was removed, 1/10 volume of a sodium acetate solution (3.0 M NaOAc pH 4.5) was added, samples were shaken or inverted for 10 seconds, and acid-phenol (premixed with isoamyl alcohol):chloroform (5:1, Ambion, Inc.) was added at an volume equivalent to the starting sample volume. Samples were shaken vigorously for 1 min, followed by a 15-min incubation on ice, and centrifuged for 30 min at 10,000 g. The aqueous phase removed and placed in a clean polypropylene tube. An equal volume of isopropanol (Sigma, St. Louis, Mo.) was added and the samples were mixed and incubated overnight at −20° C. The samples were centrifuged for 30 min at 10,000 g, the supernatant was removed and the RNA pellet was resuspended in DNAse/RNAse-free water. Samples were frozen at −80° C. for at least 2 hours, thawed on wet ice, and diluted for quantitation.

[4] abbreviates: mean ± SEM after 7 days of treatment.
The mark [5] stands for this setting: mean ± SEM after 14 days of treatment.
Setting [6] is: mean ± SEM after 30 days of treatment.
The mark [7] stands for this setting: group mean, data used for Table 15 (14 days of treatment).
Setting [8] is: group mean, data used for Table 16 (30 days of treatment).
The mark [9] stands for this setting: group mean, data used for Table 17 (7-day protocol).
[10] abbreviates: group mean, data used for Table 18 (14-day protocol).
[11] abbreviates: group mean, data used for Table 19 (30-day protocol).

In the case of `COC(=O)[C@@H]1CC2=CC(=O)CC[C@]2(C)[C@@]23O[C@@H]2C[C@@]2(C)[C@@H](CC[C@@]24CCC(=O)O4)[C@H]13` [Eplerenone], the “Collagen type-I message” value in experiment [1] was “modest increase”. In addition, the “Collagen-I (AU)” value amounted to 0.85 ± 0.15 AU in experiment [1] (setting [4]), 1.39 ± 0.21 AU in experiment [1] (setting [5]) and 2.53 ± 0.20 AU in experiment [1] (setting [6]). The “Collagen-I mRNA (AU)” value in experiment [1] (setting [7]) is 1.39 AU; in experiment [1] (setting [8]), 2.53 AU; in experiment [1] (individual rats, data used for Table 15 (14 days of treatment), incl. rat marked * excluded from statistics, listed as Eplerenone + aldosterone + salt), 0.86 AU (2×) and 0.90 AU and 1.65 AU and 1.14 AU and 1.44 AU and 0.50 AU and 1.24 AU and 1.69 AU and 2.03 AU and 3.02 AU; in experiment [1] (individual rats, data used for Table 16 (30 days of treatment), incl. rat marked * excluded from statistics, listed as Eplerenone + aldosterone + salt), 1.89 AU and 1.54 AU and 2.65 AU (2×) and 1.97 AU and 2.98 AU and 2.90 AU and 2.88 AU and 3.35 AU and 2.01 AU. Moreover, the “Osteopontin expression in the heart (immunostaining)” value in experiment [2] was “prevented osteopontin expression”. Further, the “VCAM mRNA (AU)” value in experiment [3] (after 7 days of treatment) came to 0.56 ± 0.08 AU; in experiment [3] (after 14 days of treatment), 0.83 AU; in experiment [3] (after 30 days of treatment) it was 1.04 ± 0.14 AU. Moreover, the “VCAM (AU)” value was 0.56 AU in experiment [3] (setting [9]); 0.83 AU in experiment [3] (setting [10]); 1.04 AU in experiment [3] (setting [11]); 0.67 AU and 0.58 AU and 0.22 AU and 0.57 AU and 0.53 AU and 1.00 AU in experiment [3] (individual rats, data used for Table 17 (7-day protocol), incl. rat marked * excluded from statistics, listed as Eplerenone + aldosterone + salt); 0.54 AU and 0.66 AU and 0.61 AU (2×) and 0.67 AU and 0.86 AU and 1.21 AU and 1.00 AU and 0.68 AU (2×) and 1.60 AU in experiment [3] (individual rats, data used for Table 18 (14-day protocol), incl. rat marked * excluded from statistics, listed as Eplerenone + aldosterone + salt); 1.42 AU (2×) and 1.29 AU and 1.49 AU and 1.27 AU and 0.79 AU and 0.52 AU and 0.57 AU and 0.61 AU and 4.01 AU in experiment [3] (individual rats, data used for Table 19 (30-day protocol), incl. rat marked * excluded from statistics, listed as Eplerenone + aldosterone + salt). The “VCAM-1 mRNA expression” value in experiment [3] was “inhibition; also recorded: significantly reduced”.

Consider `C[C@]12CCC(=O)C=C1CC[C@@H]1[C@@H]2[C@@H](O)C[C@]2(C=O)[C@@H](C(=O)CO)CC[C@@H]12` [Aldosterone], for which the “Collagen type-I message” value in experiment [1] is reported as “modest increase”. The “Collagen-I (AU)” value in experiment [1] (setting [4]) is on record as 1.36 ± 0.14 AU; in experiment [1] (setting [5]), 1.33 ± 0.24 AU; in experiment [1] (setting [6]), 2.29 ± 0.47 AU. The “Collagen-I mRNA (AU)” value was 1.33 AU in experiment [1] (setting [7]); 2.29 AU in experiment [1] (setting [8]); 1.15 AU and 2.31 AU and 0.25 AU and 1.89 AU and 2.03 AU and 1.00 AU and 1.20 AU and 1.70 AU and 0.43 AU and 2.69 AU in experiment [1] (individual rats, data used for Table 15 (14 days of treatment), incl. rat marked * excluded from statistics, listed as Aldosterone + salt); 2.20 AU and 2.02 AU (2×) and 5.88 AU and 1.05 AU and 1.32 AU and 1.98 AU and 1.63 AU and 2.54 AU in experiment [1] (individual rats, data used for Table 16 (30 days of treatment), incl. rat marked * excluded from statistics, listed as Aldosterone + salt). Moreover, the “Osteopontin expression in the heart (immunostaining)” value in experiment [2] is given as “restored osteopontin expression”. The “VCAM mRNA (AU)” value is 1.55 ± 0.39 AU in experiment [3] (after 7 days of treatment), 1.16 AU in experiment [3] (after 14 days of treatment) and 2.14 ± 0.49 AU in experiment [3] (after 30 days of treatment). Moreover, the “VCAM (AU)” value in experiment [3] (setting [9]) was 1.55 AU; in experiment [3] (setting [10]) it was 1.16 AU; in experiment [3] (setting [11]) it was 2.14 AU; in experiment [3] (individual rats, data used for Table 17 (7-day protocol), incl. rat marked * excluded from statistics, listed as Aldosterone + salt) it was 3.49 AU and 0.85 AU and 2.06 AU and 2.51 AU and 1.65 AU and 0.61 AU and 0.94 AU and 0.27 AU and 5.23 AU; in experiment [3] (individual rats, data used for Table 18 (14-day protocol), incl. rat marked * excluded from statistics, listed as Aldosterone + salt), 0.89 AU and 0.69 AU and 0.84 AU and 0.72 AU and 2.23 AU and 1.03 AU and 1.65 AU and 1.24 AU and 1.75 AU; in experiment [3] (individual rats, data used for Table 19 (30-day protocol), incl. rat marked * excluded from statistics, listed as Aldosterone + salt), 3.48 AU and 1.87 AU and 2.99 AU and 1.64 AU and 0.72 AU. For the same compound, the “VCAM-1 mRNA expression” value in experiment [3] is given as “increased two-fold”.
